{"source": "paper PMC8607231", "about": "“Generation of KS-133 as a Novel Bicyclic Peptide with a Potent and Selective VIPR2 Antagonist Activity that Counteracts Cognitive Decline in a Mouse Model of Psychiatric Disorders” (Frontiers in Pharmacology, 2021)", "key": {"[1]": {"system": "prefrontal pyramidal neurons", "experiment": "Golgi-Cox dendritic morphology and Sholl analysis of prefrontal cortex neurons", "format": "in vivo, mouse", "experimental": "For behavioral experiments, all litters were randomly divided into Ro 25-1553- and PBS-treated groups. From P1 to P14, mice were injected s.c. once daily with Ro 25-1553 at a dose of 0.07 nmol/g ([Ago et al., 2015]). Mice treated with PBS from P1 to P14 were used as the control. KS-133 or the vehicle was simultaneously injected with Ro 25-1553 or PBS. Animals were weaned at P21 and divided by gender at P28. We used male mice exclusively to minimize any potential variability due to sex-specific effects on behavioral performance. […]\nDendritic morphological analysis was performed on mice after the novel object recognition test and samples were collected within 10 min of dissection. […] Morphologies of apical and basal dendrites were quantified in three dimensions using the Neurolucida neuron tracing system (MBF Bioscience, Williston, VT) with the experimenter blinded to the treatment. […]\nFIGURE 6 Alterations in the dendritic morphology of prefrontal pyramidal neurons in mice treated with Ro 25-1553 and KS-133 during the early postnatal period. […] The number of intersections of dendrites with 7.5-μm concentric spheres centered on the soma was measured by Sholl analysis. Results are expressed as the mean ± S.E.M. of 40 neurons from five mice per group. *p < 0.05, **p < 0.01, ***p < 0.001."}, "human VIPR2": {"target": "T1, human VIPR2 (Homo sapiens, UniProt P41587)", "T1 construct": "host or cells: CHO-K1", "T1 sequence (P41587 24-438)": "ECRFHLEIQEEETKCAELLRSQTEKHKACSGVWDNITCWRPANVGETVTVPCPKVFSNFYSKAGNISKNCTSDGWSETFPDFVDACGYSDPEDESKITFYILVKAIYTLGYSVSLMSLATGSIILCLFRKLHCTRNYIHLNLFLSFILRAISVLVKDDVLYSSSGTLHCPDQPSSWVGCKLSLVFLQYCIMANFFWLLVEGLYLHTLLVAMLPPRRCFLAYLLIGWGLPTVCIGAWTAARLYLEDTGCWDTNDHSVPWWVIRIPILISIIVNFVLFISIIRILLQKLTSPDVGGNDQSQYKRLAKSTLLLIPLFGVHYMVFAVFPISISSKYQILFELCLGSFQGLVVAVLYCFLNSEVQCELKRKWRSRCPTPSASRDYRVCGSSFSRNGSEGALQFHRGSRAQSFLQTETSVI", "experiment": "HitHunter cAMP assay, antagonist mode", "format": "cell-based", "experimental": "Evaluation of antagonist activities of peptides against VIP-VIPR1, VIP-VIPR2, and PACAP-PAC1 signaling pathways and agonistic activity of KS-133 at VIPR2 was carried out by Eurofins DiscoverX (Fremont, CA, United States). Intracellular calcium mobilization was monitored using a calcium-sensitive dye loaded in CHO-K1 cells expressing human VIPR1 (ITEM 86-0030P-2243AN), VIPR2 (ITEM 86-0030P-2244AN), and PAC1 (ITEM 86-0030P-2066AN). The cells were preincubated with antagonistic peptides for 30 min at room temperature in the dark. After addition of the ligand at EC80, calcium mobilization was immediately monitored by FLIPR Tetra for 2 min. Cyclic AMP production in CHO-K1 cells expressing human VIPR2 was evaluated using HitHunter® cAMP assays (antagonist mode: ITEM 86-0007P-2362AN; agonist mode: ITEM 86-0007P-2362AG). […] Cells were lysed and the cAMP content of the cell lysate was determined by the β-galactosidase-based enzyme fragment complementation assay ([Eglen, 2002]). […]\nFIGURE 3 Antagonistic/agonistic activities of peptides in the calcium influx and cAMP assays. […] In the calcium influx assay, after addition of ligand at EC80, calcium mobilization was monitored immediately (see details in the Methods section) (n = 4 wells for each treatment). […]\nNext, antagonistic and agonistic activities of KS-133 at VIPR2 were evaluated by a cAMP assay. […]"}}, "note": "Where a SMILES comes first, the peptide text is derived from it. Bridges are numbered along the chain shown (N, C = ends)."}
{"compound": "CC[C@H](C)[C@H](NC(=O)[C@H](CC(C)C)NC(=O)[C@@H]1CC(=O)NCCCC[C@@H]2NC(=O)[C@@H]3CCCN3C(=O)[C@H](CC(C)C)NC(=O)[C@H](Cc3ccc(O)cc3)NC(=O)[C@@H]3CCCN3C(=O)[C@@H]3CCCN3C(=O)[C@@H](NC(C)=O)CSSC[C@H](NC(=O)[C@H](CC(C)C)NC(=O)[C@H](Cc3ccc(O)cc3)NC2=O)C(=O)N1)C(N)=O", "note": "[KS-133, Ac-c[Cys-Pro-Pro-Tyr-Leu-Pro-c(Lys-Tyr-Leu-Cys]-Asp)-Leu-Ile-NH2] (Ac-CPPYLPKYLCDLI-NH2; disulfide 1-10; lactam 7-11)", "values": [{"measurement": "Effect on Ro 25-1553-induced changes in soma size, branch number and dendrite length", "setting": "[1]; KS-133 simultaneously with Ro 25-1553, P1-14", "value": "counteracted"}, {"measurement": "Sholl analysis, effect on Ro 25-1553-induced morphological abnormalities of apical and basal dendrites", "setting": "[1]; KS-133 with Ro 25-1553, prefrontal cortex", "value": "prevented the morphological abnormalities"}, {"measurement": "Antagonism of VIP-VIPR2 signaling pathway", "setting": "human VIPR2; cAMP assay", "value": "antagonized VIP-VIPR2 signaling pathway in a peptide concentration-dependent manner"}, {"measurement": "IC50", "setting": "human VIPR2; ligand VIP (0.5 nM) at EC80, CHO-K1 cells, n = 4 wells, ± S.E.M", "value": "500 ± 79", "unit": "nM"}]}
